{"source": "patent US9340590B2", "about": "(priority 2011, dated 2016)", "experiment_in_all_cases": "cell-based", "key": {"hNav1.3": {"molecular_target": "hNav1.3 (Homo sapiens, UniProt Q9NY46)", "conditions": "IonWorks Quattro, read-out: IWQ Use Nav1.3"}, "hNav1.5": {"molecular_target": "hNav1.5 (Homo sapiens, UniProt Q14524)", "sequence (Q14524 whole entry, looked up)": "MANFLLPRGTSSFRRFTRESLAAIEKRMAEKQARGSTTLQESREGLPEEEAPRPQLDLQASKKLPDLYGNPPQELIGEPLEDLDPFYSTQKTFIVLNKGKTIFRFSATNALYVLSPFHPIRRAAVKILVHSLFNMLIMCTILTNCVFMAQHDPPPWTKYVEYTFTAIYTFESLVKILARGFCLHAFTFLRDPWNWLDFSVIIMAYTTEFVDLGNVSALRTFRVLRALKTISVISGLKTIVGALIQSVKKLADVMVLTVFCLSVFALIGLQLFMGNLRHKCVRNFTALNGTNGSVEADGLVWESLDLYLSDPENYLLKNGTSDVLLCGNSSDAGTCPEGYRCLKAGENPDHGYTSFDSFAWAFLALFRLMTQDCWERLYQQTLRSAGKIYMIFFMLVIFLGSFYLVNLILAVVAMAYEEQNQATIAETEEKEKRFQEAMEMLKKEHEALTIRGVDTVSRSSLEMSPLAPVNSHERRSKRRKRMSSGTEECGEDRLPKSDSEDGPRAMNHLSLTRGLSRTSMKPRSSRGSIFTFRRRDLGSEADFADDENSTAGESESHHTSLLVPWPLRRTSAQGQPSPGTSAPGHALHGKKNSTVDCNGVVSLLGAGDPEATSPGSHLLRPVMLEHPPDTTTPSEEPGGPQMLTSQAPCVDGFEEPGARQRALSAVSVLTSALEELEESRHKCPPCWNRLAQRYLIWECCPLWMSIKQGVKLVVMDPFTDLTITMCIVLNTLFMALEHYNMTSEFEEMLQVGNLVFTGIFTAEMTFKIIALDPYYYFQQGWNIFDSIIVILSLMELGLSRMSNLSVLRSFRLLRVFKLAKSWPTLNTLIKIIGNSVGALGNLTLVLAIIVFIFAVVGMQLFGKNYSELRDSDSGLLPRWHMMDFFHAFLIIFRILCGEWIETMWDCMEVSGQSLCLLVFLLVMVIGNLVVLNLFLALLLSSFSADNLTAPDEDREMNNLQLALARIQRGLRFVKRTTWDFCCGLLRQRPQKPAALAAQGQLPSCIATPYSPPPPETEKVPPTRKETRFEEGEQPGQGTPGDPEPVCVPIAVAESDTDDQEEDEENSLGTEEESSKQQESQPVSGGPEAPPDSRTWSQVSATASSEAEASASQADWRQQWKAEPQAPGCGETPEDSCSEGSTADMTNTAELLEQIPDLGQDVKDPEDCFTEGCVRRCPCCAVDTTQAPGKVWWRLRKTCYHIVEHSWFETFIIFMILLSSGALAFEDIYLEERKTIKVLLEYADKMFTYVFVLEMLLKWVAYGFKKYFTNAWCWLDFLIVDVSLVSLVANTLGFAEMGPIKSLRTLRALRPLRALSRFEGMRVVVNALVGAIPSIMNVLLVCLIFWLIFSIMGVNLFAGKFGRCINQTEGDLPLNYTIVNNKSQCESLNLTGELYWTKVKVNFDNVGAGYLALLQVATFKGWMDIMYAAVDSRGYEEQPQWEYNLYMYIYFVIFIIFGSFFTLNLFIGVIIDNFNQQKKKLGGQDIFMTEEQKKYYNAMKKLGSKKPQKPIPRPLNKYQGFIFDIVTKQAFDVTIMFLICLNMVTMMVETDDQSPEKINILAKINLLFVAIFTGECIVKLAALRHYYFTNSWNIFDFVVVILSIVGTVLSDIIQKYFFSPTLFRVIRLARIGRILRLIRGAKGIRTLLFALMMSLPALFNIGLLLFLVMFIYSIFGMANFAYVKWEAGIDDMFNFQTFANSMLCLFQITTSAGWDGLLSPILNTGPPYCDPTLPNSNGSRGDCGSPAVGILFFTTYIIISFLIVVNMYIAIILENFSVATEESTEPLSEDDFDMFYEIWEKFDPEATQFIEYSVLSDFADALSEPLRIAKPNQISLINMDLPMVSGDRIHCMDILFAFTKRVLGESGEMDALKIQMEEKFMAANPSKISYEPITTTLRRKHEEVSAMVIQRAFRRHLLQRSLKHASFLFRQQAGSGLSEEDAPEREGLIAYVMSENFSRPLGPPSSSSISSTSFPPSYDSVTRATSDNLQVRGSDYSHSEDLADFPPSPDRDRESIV", "conditions": "IonWorks Quattro, read-out: IWQ Use Nav1.5"}, "hNav1.7": {"molecular_target": "hNav1.7 (Homo sapiens, UniProt Q15858)", "sequence (Q15858 whole entry, looked up)": "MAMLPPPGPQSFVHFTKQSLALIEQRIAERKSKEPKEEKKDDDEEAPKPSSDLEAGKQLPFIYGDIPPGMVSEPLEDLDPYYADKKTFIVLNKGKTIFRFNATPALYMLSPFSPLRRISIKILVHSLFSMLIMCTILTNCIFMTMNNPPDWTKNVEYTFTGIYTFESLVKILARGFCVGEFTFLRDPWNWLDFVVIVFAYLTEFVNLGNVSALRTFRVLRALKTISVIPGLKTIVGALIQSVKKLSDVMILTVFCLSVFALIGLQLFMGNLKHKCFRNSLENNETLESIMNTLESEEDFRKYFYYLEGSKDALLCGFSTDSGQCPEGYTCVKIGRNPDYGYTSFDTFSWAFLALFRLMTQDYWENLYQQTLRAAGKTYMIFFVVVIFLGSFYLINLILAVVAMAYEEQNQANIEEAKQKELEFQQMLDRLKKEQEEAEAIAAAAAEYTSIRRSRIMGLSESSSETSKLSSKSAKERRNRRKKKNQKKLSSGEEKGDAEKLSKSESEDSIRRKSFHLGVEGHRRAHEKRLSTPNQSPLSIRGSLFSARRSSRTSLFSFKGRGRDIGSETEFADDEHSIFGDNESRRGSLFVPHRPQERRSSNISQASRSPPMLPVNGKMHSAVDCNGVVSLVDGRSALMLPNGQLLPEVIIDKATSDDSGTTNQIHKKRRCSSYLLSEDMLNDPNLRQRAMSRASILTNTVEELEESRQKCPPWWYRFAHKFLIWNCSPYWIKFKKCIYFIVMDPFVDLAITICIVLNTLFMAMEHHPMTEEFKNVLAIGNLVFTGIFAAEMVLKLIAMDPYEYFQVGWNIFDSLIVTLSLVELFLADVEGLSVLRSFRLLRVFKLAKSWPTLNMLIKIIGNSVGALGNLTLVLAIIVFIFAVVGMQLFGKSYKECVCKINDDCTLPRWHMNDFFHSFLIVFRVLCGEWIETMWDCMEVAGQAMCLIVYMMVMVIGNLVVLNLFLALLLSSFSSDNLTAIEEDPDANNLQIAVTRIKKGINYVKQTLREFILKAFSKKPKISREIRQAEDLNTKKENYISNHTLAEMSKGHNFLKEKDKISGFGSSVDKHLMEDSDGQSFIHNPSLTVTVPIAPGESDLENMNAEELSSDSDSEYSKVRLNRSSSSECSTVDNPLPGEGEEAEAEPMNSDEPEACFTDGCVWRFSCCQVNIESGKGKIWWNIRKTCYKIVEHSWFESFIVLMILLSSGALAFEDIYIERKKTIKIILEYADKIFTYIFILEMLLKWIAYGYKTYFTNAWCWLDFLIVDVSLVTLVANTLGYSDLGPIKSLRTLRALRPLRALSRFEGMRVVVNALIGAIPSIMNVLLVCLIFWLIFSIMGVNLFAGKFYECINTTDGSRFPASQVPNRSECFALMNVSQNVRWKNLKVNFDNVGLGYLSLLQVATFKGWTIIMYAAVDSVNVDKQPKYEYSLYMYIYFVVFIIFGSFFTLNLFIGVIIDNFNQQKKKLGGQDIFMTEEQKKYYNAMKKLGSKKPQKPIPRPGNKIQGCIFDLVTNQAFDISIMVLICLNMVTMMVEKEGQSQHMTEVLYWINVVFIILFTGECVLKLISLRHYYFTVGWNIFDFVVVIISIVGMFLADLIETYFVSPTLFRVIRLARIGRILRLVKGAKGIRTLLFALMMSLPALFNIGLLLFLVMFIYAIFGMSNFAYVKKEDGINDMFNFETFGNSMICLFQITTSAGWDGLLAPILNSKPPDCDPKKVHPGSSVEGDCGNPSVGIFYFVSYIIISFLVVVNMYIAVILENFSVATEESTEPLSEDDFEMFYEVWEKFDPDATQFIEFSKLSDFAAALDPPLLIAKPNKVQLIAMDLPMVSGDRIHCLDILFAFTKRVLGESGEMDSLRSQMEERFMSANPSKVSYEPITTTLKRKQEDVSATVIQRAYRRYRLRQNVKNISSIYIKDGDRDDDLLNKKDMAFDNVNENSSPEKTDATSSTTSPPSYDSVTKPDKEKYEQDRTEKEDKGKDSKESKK", "assay_type": "cell-based", "conditions": "IonWorks Quattro, read-out: IWQ Use Nav1.7"}}, "note": "pIC50: −log10 of the molar value. Where two headings read alike, the source gives them in different places. Positions of bridges follow the written chain, without caps; N, C: chain ends. Non-standard residues stand in square brackets, D forms with d. Residues, ends and D or L forms follow the SMILES beside them. *: point of attachment. 1Nal = N[C@@H](Cc1cccc2ccccc12)C(=O)O; Pent4ynoyl = C#CCCC(=O)*; Abu = CC[C@H](N)C(=O)O"}
{"smiles": "CC[C@H](C)[C@@H]1NC(=O)[C@@H]2CSSC[C@@H]3NC(=O)[C@@H]4CCCN4C(=O)[C@H](CC(C)C)NC(=O)[C@H](CC(N)=O)NC(=O)[C@@H]4CCCN4C(=O)[C@H](CCCNC(=N)N)NC(=O)[C@H](CSSC[C@H](NC(=O)[C@@H](N)CC(=O)O)C(=O)N[C@@H](CC(C)C)C(=O)NCC(=O)N[C@@H](Cc4ccccc4)C(=O)N[C@@H](CCSC)C(=O)N[C@@H](CCCNC(=N)N)C(=O)N[C@@H](CCCCN)C(=O)N2)NC(=O)[C@H](CSSC[C@@H](C(=O)N[C@@H](CCCCN)C(=O)N[C@@H](Cc2ccc(O)cc2)C(=O)N[C@H](C(=O)N[C@@H](Cc2ccccc2)C(N)=O)C(C)C)NC(=O)[C@H](Cc2c[nH]c4ccccc24)NC(=O)[C@H](CCCCN)NC(=O)[C@H](Cc2c[nH]cn2)NC(=O)[C@H]([C@@H](C)O)NC(=O)[C@H](CCCNC(=N)N)NC(=O)[C@H](CO)NC3=O)NC(=O)[C@H](CCCCN)NC(=O)[C@H](CC(=O)O)NC(=O)[C@H](CC(N)=O)NC(=O)[C@H](CC(=O)O)NC(=O)[C@@H]2CCCN2C1=O", "note": "[compound 320] (H-DCLGFMRKCIPDNDKCCRPNLPCSRTHKWCKYVF-NH2; disulfide 2-17, 9-23, 16-30)", "values": [{"measurement": "pIC50", "setting": "hNav1.3; Use", "value": "< 5.30"}, {"measurement": "pIC50", "setting": "hNav1.5; Use", "value": "< 5.30"}, {"measurement": "pIC50", "setting": "hNav1.7; Use", "value": "< 5.30"}]}
{"smiles": "CC[C@H](C)[C@@H]1NC(=O)[C@@H]2CSSC[C@@H]3NC(=O)[C@H](C(C)C)NC(=O)[C@H](CC(C)C)NC(=O)[C@H](CC(N)=O)NC(=O)[C@@H]4CCCN4C(=O)[C@H](CCCNC(=N)N)NC(=O)[C@H](CSSC[C@H](NC(=O)[C@@H](N)CC(=O)O)C(=O)N[C@@H](CC(C)C)C(=O)NCC(=O)N[C@@H](Cc4ccccc4)C(=O)N[C@@H](CCSC)C(=O)N[C@@H](CCCNC(=N)N)C(=O)N[C@@H](CCCCN)C(=O)N2)NC(=O)[C@H](CSSC[C@@H](C(=O)N[C@@H](CCCCN)C(=O)N[C@@H](Cc2ccc(O)cc2)C(=O)N[C@H](C(=O)N[C@@H](Cc2ccccc2)C(N)=O)C(C)C)NC(=O)[C@H](Cc2c[nH]c4ccccc24)NC(=O)[C@H](CCCCN)NC(=O)[C@H](Cc2cccc4ccccc24)NC(=O)[C@H]([C@@H](C)O)NC(=O)[C@H](CCCNC(=N)N)NC(=O)[C@H](CO)NC3=O)NC(=O)[C@H](CCCCN)NC(=O)[C@H](CC(=O)O)NC(=O)[C@H](CC(N)=O)NC(=O)[C@H](CC(=O)O)NC(=O)[C@@H]2CCCN2C1=O", "note": "[compound 166] (H-DCLGFMRKCIPDNDKCCRPNLVCSRT[1Nal]KWCKYVF-NH2; disulfide 2-17, 9-23, 16-30)", "values": [{"measurement": "pIC50", "setting": "hNav1.3; Table 23, use, […]", "value": 6.37}, {"measurement": "pIC50", "setting": "hNav1.5; Table 23, use, […]", "value": 6.06}, {"measurement": "pIC50", "setting": "hNav1.7; Table 23, use, […]", "value": 6.52}]}
{"smiles": "CC[C@H](C)[C@@H]1NC(=O)[C@@H]2CSSC[C@@H]3NC(=O)[C@H](C(C)C)NC(=O)[C@H](CC(C)C)NC(=O)[C@H](CC(N)=O)NC(=O)[C@@H]4CCCN4C(=O)[C@H](CCCNC(=N)N)NC(=O)[C@H](CSSC[C@H](NC(=O)[C@@H](N)CC(=O)O)C(=O)N[C@@H](CC(C)C)C(=O)NCC(=O)N[C@@H](C)C(=O)N[C@@H](CC(C)C)C(=O)N[C@@H](CCCNC(=N)N)C(=O)N[C@@H](CCCCN)C(=O)N2)NC(=O)[C@H](CSSC[C@@H](C(=O)N[C@@H](CCCCN)C(=O)N[C@@H](Cc2ccc(O)cc2)C(=O)N[C@H](C(=O)N[C@@H](Cc2ccccc2)C(=O)O)C(C)C)NC(=O)[C@H](Cc2c[nH]c4ccccc24)NC(=O)[C@H](Cc2c[nH]cn2)NC(=O)[C@H](Cc2c[nH]cn2)NC(=O)[C@H]([C@@H](C)O)NC(=O)[C@H](CCCNC(=N)N)NC(=O)[C@H](CO)NC3=O)NC(=O)[C@H](CCCCN)NC(=O)[C@H](CC(=O)O)NC(=O)[C@H](CC(N)=O)NC(=O)[C@H](CC(=O)O)NC(=O)[C@@H]2CCCN2C1=O", "note": "[compound 599] (H-DCLGALRKCIPDNDKCCRPNLVCSRTHHWCKYVF-OH; disulfide 2-17, 9-23, 16-30)", "values": [{"measurement": "pIC50", "setting": "hNav1.3; use-dependent block, hNav1.3", "value": 5.66}, {"measurement": "pIC50", "setting": "hNav1.5; use-dependent block, hNav1.5", "value": 4.90}, {"measurement": "pIC50", "setting": "hNav1.7; use-dependent block, hNav1.7", "value": "< 5.30"}]}
{"smiles": "CC[C@H](C)[C@@H]1NC(=O)[C@@H]2CSSC[C@@H]3NC(=O)[C@H](C(C)C)NC(=O)[C@H](CC(C)C)NC(=O)[C@H](CC(N)=O)NC(=O)[C@@H]4CCCN4C(=O)[C@H](CCCNC(=N)N)NC(=O)[C@H](CSSC[C@H](NC(=O)[C@@H](N)CC(=O)O)C(=O)N[C@@H](CC(C)C)C(=O)NCC(=O)N[C@@H](Cc4ccccc4)C(=O)N[C@@H](CCSC)C(=O)N[C@@H](CCCNC(=N)N)C(=O)N[C@@H](CCCCN)C(=O)N2)NC(=O)[C@H](CSSC[C@@H](C(=O)N[C@@H](CCCCN)C(=O)N[C@@H](Cc2ccc(O)cc2)C(=O)N[C@H](C(=O)N[C@@H](CC(C)C)C(N)=O)C(C)C)NC(=O)[C@H](Cc2c[nH]c4ccccc24)NC(=O)[C@H](CCCCN)NC(=O)[C@H](Cc2c[nH]cn2)NC(=O)[C@H]([C@@H](C)O)NC(=O)[C@H](CCCNC(=N)N)NC(=O)[C@H](CO)NC3=O)NC(=O)[C@H](CCCCN)NC(=O)[C@H](CC(=O)O)NC(=O)[C@H](CC(N)=O)NC(=O)[C@H](CC(=O)O)NC(=O)[C@@H]2CCCN2C1=O", "note": "[compound 122] (H-DCLGFMRKCIPDNDKCCRPNLVCSRTHKWCKYVL-NH2; disulfide 2-17, 9-23, 16-30)", "values": [{"measurement": "pIC50", "setting": "hNav1.3; use-dependent, […]", "value": 6.89}, {"measurement": "pIC50", "setting": "hNav1.5; use-dependent, […]", "value": 5.07}, {"measurement": "pIC50", "setting": "hNav1.7; use-dependent, […]", "value": 6.62}]}
{"smiles": "C#CCCC(=O)NCCCC[C@@H]1NC(=O)[C@H](CC(=O)O)NC(=O)[C@@H]2CCCN2C(=O)[C@H]([C@@H](C)CC)NC(=O)[C@@H]2CSSC[C@@H]3NC(=O)[C@H](C(C)C)NC(=O)[C@H](CC(C)C)NC(=O)[C@H](CC(N)=O)NC(=O)[C@@H]4CCCN4C(=O)[C@H](CCCNC(=N)N)NC(=O)[C@H](CSSC[C@H](NC(=O)[C@@H](N)CC(=O)O)C(=O)N[C@@H](CC(C)C)C(=O)NCC(=O)N[C@@H](CC)C(=O)N[C@@H](CC(C)C)C(=O)N[C@@H](CCCNC(=N)N)C(=O)N[C@@H](CCCCN)C(=O)N2)NC(=O)[C@H](CSSC[C@@H](C(=O)N[C@@H](CCCCN)C(=O)N[C@@H](Cc2ccc(O)cc2)C(=O)N[C@H](C(=O)N[C@@H](Cc2ccccc2)C(N)=O)C(C)C)NC(=O)[C@H](Cc2c[nH]c4ccccc24)NC(=O)[C@H](CCC(=O)O)NC(=O)[C@H](Cc2c[nH]cn2)NC(=O)[C@H]([C@@H](C)O)NC(=O)[C@H](CCCNC(=N)N)NC(=O)[C@H](CO)NC3=O)NC(=O)[C@H](CCCCN)NC(=O)[C@H](CC(=O)O)NC1=O", "note": "[compound 808] (H-DCLG[Abu]LRKCIPDK(Pent4ynoyl)DKCCRPNLVCSRTHEWCKYVF-NH2; disulfide 2-17, 9-23, 16-30)", "values": [{"measurement": "pIC50", "setting": "hNav1.3; use-dependent block, hNav1.3", "value": 5.39}, {"measurement": "pIC50", "setting": "hNav1.5; use-dependent block, hNav1.5", "value": "< 5.30"}, {"measurement": "pIC50", "setting": "hNav1.7; use-dependent block, hNav1.7", "value": 5.74}]}
{"smiles": "CC[C@H](C)[C@@H]1NC(=O)[C@@H]2CSSC[C@@H]3NC(=O)[C@H](C(C)C)NC(=O)[C@H](CC(C)C)NC(=O)[C@H](CC(N)=O)NC(=O)[C@@H]4CCCN4C(=O)[C@H](CCCNC(=N)N)NC(=O)[C@H](CSSC[C@H](NC(=O)[C@@H](N)CC(=O)O)C(=O)N[C@@H](CC(C)C)C(=O)NCC(=O)N[C@@H](Cc4ccccc4)C(=O)N[C@@H](CCSC)C(=O)N[C@@H](CCCNC(=N)N)C(=O)N[C@@H](CCCCN)C(=O)N2)NC(=O)[C@H](CSSC[C@@H](C(=O)N[C@@H](CCCCN)C(=O)N[C@@H](Cc2ccc(O)cc2)C(=O)N2CCC[C@H]2C(=O)N[C@@H](Cc2ccccc2)C(N)=O)NC(=O)[C@H](Cc2c[nH]c4ccccc24)NC(=O)[C@H](CCCCN)NC(=O)[C@H](Cc2c[nH]cn2)NC(=O)[C@H]([C@@H](C)O)NC(=O)[C@H](CCCNC(=N)N)NC(=O)[C@H](CO)NC3=O)NC(=O)[C@H](CCCCN)NC(=O)[C@H](CC(=O)O)NC(=O)[C@H](CC(N)=O)NC(=O)[C@H](CC(=O)O)NC(=O)[C@@H]2CCCN2C1=O", "note": "[compound 398] (H-DCLGFMRKCIPDNDKCCRPNLVCSRTHKWCKYPF-NH2; disulfide 2-17, 9-23, 16-30)", "values": [{"measurement": "pIC50", "setting": "hNav1.3; Table 26, use, […]", "value": 5.48}, {"measurement": "pIC50", "setting": "hNav1.5; Table 26, use, […]", "value": 5.16}, {"measurement": "pIC50", "setting": "hNav1.7; Table 26, use, […]", "value": 5.28}]}
{"smiles": "CC[C@H](C)[C@@H]1NC(=O)[C@@H]2CSSC[C@@H]3NC(=O)[C@H](C(C)C)NC(=O)[C@H](CC(C)C)NC(=O)[C@H](CC(N)=O)NC(=O)[C@@H]4CCCN4C(=O)[C@H](CCCNC(=N)N)NC(=O)[C@H](CSSC[C@H](NC(=O)[C@H](CC(=O)O)NC(=O)[C@H](CO)NC(=O)CN)C(=O)N[C@@H](CC(C)C)C(=O)NCC(=O)N[C@@H](C)C(=O)N[C@@H](Cc4ccccc4)C(=O)N[C@@H](CCCNC(=N)N)C(=O)N[C@@H](CCCCN)C(=O)N2)NC(=O)[C@H](CSSC[C@@H](C(=O)N[C@@H](CCCCN)C(=O)N[C@@H](Cc2ccc(O)cc2)C(=O)N[C@H](C(=O)N[C@@H](Cc2ccccc2)C(=O)N[C@@H](Cc2ccccc2)C(=O)O)C(C)C)NC(=O)[C@H](Cc2c[nH]c4ccccc24)NC(=O)[C@H](CCCNC(=N)N)NC(=O)[C@H](Cc2c[nH]cn2)NC(=O)[C@H]([C@@H](C)O)NC(=O)[C@H](CCCNC(=N)N)NC(=O)[C@H](CO)NC3=O)NC(=O)[C@H](CCCCN)NC(=O)[C@H](CC(=O)O)NC(=O)[C@H](CC(N)=O)NC(=O)[C@H](CC(=O)O)NC(=O)[C@@H]2CCCN2C1=O", "note": "[compound 819] (H-GSDCLGAFRKCIPDNDKCCRPNLVCSRTHRWCKYVFF-OH; disulfide 4-19, 11-25, 18-32)", "values": [{"measurement": "pIC50", "setting": "hNav1.3; use-dependent block, hNav1.3", "value": 6.30}, {"measurement": "pIC50", "setting": "hNav1.5; use-dependent block, hNav1.5", "value": "< 5.30"}, {"measurement": "pIC50", "setting": "hNav1.7; use-dependent block, hNav1.7", "value": 5.82}]}
